Experimental findings from patent US20260234144A1 (TAY THERAPEUTICS LIMITED, priority 2023, published 2026) are described below.

SMILES strings stand for the structures.

The experiment deals with R223X stop codon in the mutated luciferase gene, ADXC8 luciferase reporter cell line. The experiment can be described thus: cells. It counts as cell-based. The following applies: ADXC8 cells, 24 hours; for EC (100% of 200 uM G418 response) / Emax: 24 h; for EC (100% of 200 uM G418 response): read-out: pC100%, negative logarithm of the concentration giving the same response as 200 μM G418; for Emax: read-out: Fold Over Control, maximum fold response relative to 200 μM G418; for Fold Over Control: maximum fold response relative to 200 μM G418; for pC100%: negative logarithm of the concentration giving the same response as 200 μM G418.

With `CNc1nc(N[C@H]2CNCC23CC3)nc2nc(C)cc(C)c12` [Example 403], the EC (100% of 200 uM G418 response) is 1 to 10 µM.
Still for that read-out and setting: next, `Cc1cc(C)c2c(NCCO)nc(NC3CCN(C)CC3)nc2n1` [Example 273]: 1 to 10 µM.
Consider `CN1CCC(Nc2nc(N)c3ccc(C(F)(F)F)nc3n2)CC1` [Example 18, N^2-(1-methylpiperidin-4-yl)-7-(trifluoromethyl)pyrido[2,3-d]pyrimidine-2,4-diamine], for which the Emax is 100 to 3000% and the EC (100% of 200 uM G418 response) fell in the range of 10 to 100 µM.
Consider `Cc1cc(C)c2c(NCc3ccncc3)nc(NC3CCN(C)CC3)nc2n1` [Example 319], for which the Emax fell in the range of 0 to 100% and the EC (100% of 200 uM G418 response) was above 31.6 µM.
The like results for `Cc1cc(C)c2c(N)nc(NCCN(C)c3ccccc3)nc2n1` [Example 143] were, in that order, 0 to 100% and above 31.6 µM.
In the same order, the values of `CNc1nc(NCC2CN3CCC2C3)nc2nc(C)cc(C)c12` (stereo not shown) [Example 404] are 0 to 100% and above 31.6 µM.
In the same order, the values of `CN1CCC(Nc2nc(N)c3ccc(-c4ccc(C(=O)O)cc4)nc3n2)CC1` [Example 84] are 0 to 100% and above 100 µM.
For `Cc1cc(C)c2c(N)nc(N[C@H]3CCN(C)C3)nc2n1` [Example 15, (S)-5,7-dimethyl-N^2-(1-methylpyrrolidin-3-yl)pyrido[2,3-d]pyrimidine-2,4-diamine], the Emax lay within 100 to 3000% and the EC (100% of 200 uM G418 response) is 1 to 10 µM.
For the molecule `Cc1cc(C)c2c(N)nc(N[C@@H]3CCNC[C@@H]3O)nc2n1` [Example 573], the EC (100% of 200 uM G418 response) is 1 to 10 µM.
In the case of `CN1CCC(Nc2nc(N)c3ccc(-c4cccc(S(N)(=O)=O)c4)nc3n2)CC1` [Example 55], the Emax lay in the range of 100 to 3000% and the EC (100% of 200 uM G418 response) was in the range of 10 to 100 µM.
`Cc1cc(C)c2c(N)nc(NC3CCN(Cc4ccc(O)cc4)CC3)nc2n1` [Example 460]: the Emax lay in the range of 100 to 3000% and the EC (100% of 200 uM G418 response) was in the range of 1 to 10 µM.
The like results for `Cc1nc2nc(NC3CCN(Cc4ccc(C#N)c(F)c4)CC3)nc(N)c2c2c1CCC2` [Example 528] were, in that order, 100 to 3000% and 0.1 to 1 µM.
In the case of `CC(=O)Nc1ccc(CN2CCC(Nc3nc(N)c4c(C)cc(C)nc4n3)CC2)cc1` [Example 458], the Emax is 100 to 3000% and the EC (100% of 200 uM G418 response) fell in the range of 10 to 100 µM.
As for `CNc1nc(N[C@@H]2CCNC2)nc2nc(C)cc(C)c12` [Example 294], the EC (100% of 200 uM G418 response) is 0.1 to 1 µM.
`CNc1nc(N[C@H]2CNC[C@H]2O)nc2nc3c(c(C)c12)CCC3` [Example 360]: the Emax was 100 to 3000% and the EC (100% of 200 uM G418 response) is 10 to 100 µM.
Take `C#Cc1cnc2nc(NC3CCN(C)CC3)nc(N)c2c1` [Example 278]: the Emax was in the range of 0 to 100% and the EC (100% of 200 uM G418 response) is above 31.6 µM.
For the molecule `Cc1cc(C(C)C)nc2nc(NC3CCN(C)CC3)nc(N)c12` [Example 602], the EC (100% of 200 uM G418 response) lay within 1 to 10 µM.
For the molecule `CNc1nc(NC2C3CNC2C3)nc2nc(C)cc(C)c12` (single isomer, unassigned) [Example 447], the “Fold Over Control” value is “## (Fold over Ctrl > 1 ≤ 30)” and the pC100% result was “++ (pC100% > 5.0 ≤ 6.0)”.
For the molecule `CNc1nc(N[C@@H]2C[C@H](O)CN(C)C2)nc2nc(C)cc(C)c12` [Example 603], the Emax lay in the range of 100 to 3000% and the EC (100% of 200 uM G418 response) fell in the range of 1 to 10 µM.
Consider `Cc1cc(C)c2c(NC(C)C)nc(NC3CCN(C)CC3)nc2n1` [Example 264], for which the Emax lay within 100 to 3000% and the EC (100% of 200 uM G418 response) was in the range of 1 to 10 µM.
Take `CNc1nc(N[C@H]2CN(C)CC[C@H]2OC)nc2nc(C)cc(C)c12` [Example 591]: the Emax fell in the range of 100 to 3000% and the EC (100% of 200 uM G418 response) was in the range of 0.1 to 1 µM.
Turning to `Cc1cc(C)c2c(N)nc(NCC3(N(C)C)CCOCC3)nc2n1` [Example 156], the EC (100% of 200 uM G418 response) fell in the range of 1 to 10 µM.
As for `Cc1cc(C)c2c(N)nc(NC3CCCCN(C(=O)OC(C)(C)C)C3)nc2n1` (stereo not shown) [Example 135], the Emax lay in the range of 0 to 100% and the EC (100% of 200 uM G418 response) is above 100 µM.
`[2H]C([2H])([2H])Nc1nc(NC2CCN(C([2H])([2H])[2H])CC2)nc2nc(C)cc(C)c12` [Example 512, 5,7-dimethyl-N^4-(methyl-da)-N^2-(1-(methyl-da)piperidin-4-yl)pyrido[2,3-d]pyrimidine-2,4-diamine]: the EC (100% of 200 uM G418 response) lay in the range of 0.1 to 1 µM.
In the case of `Cc1c2c(nc3nc(NC4CCN(Cc5cccnc5O)CC4)nc(N)c13)CCC2` [Example 664], the Emax lay within 0 to 100% and the EC (100% of 200 uM G418 response) was above 31.6 µM.
For the molecule `Cc1cc(C)c2c(N)nc(NCC3CC4(CNC4)C3)nc2n1` [Example 208], the Emax fell in the range of 0 to 100% and the EC (100% of 200 uM G418 response) is above 31.6 µM.
On to `Cc1cc(C)c2c(N)nc(NC3CCN(Cc4cccc(C(F)F)c4)CC3)nc2n1` [Example 489], for which the Emax was in the range of 100 to 3000% and the EC (100% of 200 uM G418 response) lay in the range of 1 to 10 µM.
Regarding `Cc1cc(C)c2c(N)nc(NC3CCN(Cc4ccccc4S(C)(=O)=O)CC3)nc2n1` [Example 498], the Emax lay within 0 to 100% and the EC (100% of 200 uM G418 response) was above 31.6 µM.
The like results for `Cc1cc(C)c2c(N)nc(N[C@@H]3CCCC[C@H]3N(C)C)nc2n1` [Example 181] were, in that order, 0 to 100% and above 31.6 µM.
For `CNc1nc(NC2CNCC2C#N)nc2nc(C)cc(C)c12` (single isomer, unassigned) [Example 452], the “Fold Over Control” value is “## (Fold over Ctrl > 1 ≤ 30)” and the pC100% result is given as “+ (pC100% > 4.0 ≤ 5.0)”.
Regarding `CNc1nc(NC2CC3CCC2N3)nc2nc(C)cc(C)c12` (stereo not shown) [Example 517, N^2-(-7-azabicyclo[2.2.1]heptan-2-yl)-N^4,5,7-trimethylpyrido[2,3-d]pyrimidine-2,4-diamine], the Emax is 100 to 3000% and the pC100% entry is recorded as “++ (pC100% > 5.0 ≤ 6.0)”.
In the case of `COC(=O)c1cnc2nc(NC3CCN(C)CC3)nc(N)c2c1` [Example 122, methyl 4-amino-2-[(1-methylpiperidin-4-yl)amino]pyrido[2,3-d]pyrimidine-6-carboxylate], the Emax was in the range of 0 to 100% and the EC (100% of 200 uM G418 response) was above 100 µM.
The like results for `CNc1cc(C)c2c(NC)nc(N[C@@H]3CCN(C)C3)nc2n1` [Example 524, (R)—N^4,N^7,5-trimethyl-N^2-(1-methylpyrrolidin-3-yl)pyrido[2,3-d]pyrimidine-2,4,7-triamine] were, in that order, 100 to 3000% and 1 to 10 µM.
The like results for `CNc1nc(N[C@@H]2CN[C@H](C)C2)nc2nc(C)cc(C)c12` [Example 372] were, in that order, 100 to 3000% and 10 to 100 µM.
In the same order, the values of `Cc1cc(C)c2c(N)nc(NCC(C)(C)N3CCOCC3)nc2n1` [Example 148] are 100 to 3000% and 10 to 100 µM.
In the case of `CNc1cc(N[C@H]2CNC[C@H]2OC)nc2nc3c(c(C)c12)CCC3` [Example 617], the Emax lay within 100 to 3000% and the EC (100% of 200 uM G418 response) was 1 to 10 µM.
In the case of `CNc1nc(NC2CCNCC2)nc2nc(C)cc(C)c12` [Example 588], the EC (100% of 200 uM G418 response) fell in the range of 0.1 to 1 µM.
Turning to `CC(CO)c1ccc2c(N)nc(NC3CCN(C)CC3)nc2n1` (stereo not shown) [Example 240, 2-(4-amino-2-((1-methylpiperidin-4-yl)amino)pyrido[2,3-d]pyrimidin-7-yl)propan-1-ol], the Emax is 0 to 100% and the EC (100% of 200 uM G418 response) was above 100 µM.
In the same order, the values of `CNc1nc(N[C@]2(C)CCN(C)C2)nc2nc(C)cc(C)c12` [Example 388] are 0 to 100% and above 31.6 µM.
Take `Cc1cc(-c2ccccc2)nc2nc(NCCCN3CCOCC3)nc(N)c12` [Example 120, 5-methyl-N2-(3-morpholinopropyl)-7-phenylpyrido[2,3-d]pyrimidine-2,4-diamine]: the Emax lay within 100 to 3000% and the EC (100% of 200 uM G418 response) was in the range of 1 to 10 µM.
For `CN1CCC(Nc2nc(N)c3ccc(-c4cccc(S(C)(=O)=O)c4)nc3n2)CC1` [Example 97], the EC (100% of 200 uM G418 response) lay in the range of 10 to 100 µM.
Turning to `Cc1cc(C)c2c(N)nc(NC3CCN(Cc4cnco4)CC3)nc2n1` [Example 474], the Emax lay in the range of 100 to 3000% and the EC (100% of 200 uM G418 response) was in the range of 10 to 100 µM.
In the same order, the values of `CNc1nc(N[C@@H]2CCN(C)C2)nc2nc(OC)c(CCO)c(C)c12` [Example 513, (R)-2-(7-methoxy-5-methyl-4-(methylamino)-2-((1-methylpyrrolidin-3-yl)amino)pyrido[2,3-d]pyrimidin-6-yl)ethan-1-ol] are 0 to 100% and above 31.6 µM.
With `CN1CCC(Nc2nc(N)c3ccc(-c4ccnnc4)nc3n2)CC1` [Example 61], the Emax fell in the range of 0 to 100% and the EC (100% of 200 uM G418 response) was above 100 µM.
The like results for `CNc1nc(N[C@@H]2CCN(C)C2)nc2nc3c(c(C)c12)CCC3` [Example 336] were, in that order, 100 to 3000% and 0.1 to 1 µM.
On to `CN1CCC(Nc2nc(N)c3c(n2)nc(-c2ccccc2)c2ccccc23)CC1` [Example 31, N^3-(1-methylpiperidin-4-yl)-6-phenylpyrimido[4,5-c]isoquinoline-1,3-diamine], for which the Emax fell in the range of 100 to 3000% and the EC (100% of 200 uM G418 response) was in the range of 1 to 10 µM.
For `CNc1nc(NC2C3CNC2C3)nc2nc(C)cc(C)c12` (single isomer, unassigned) [Example 445], the “Fold Over Control” value is given as “## (Fold over Ctrl > 1 ≤ 30)” and the pC100% result was “++ (pC100% > 5.0 ≤ 6.0)”.
For `Cc1cc(C)c2c(N)nc(NC3CCNCC3(C)C)nc2n1` (stereo not shown) [Example 212], the Emax was 100 to 3000% and the EC (100% of 200 uM G418 response) lay within 1 to 10 µM.
Regarding `Cc1cc(C)c2c(N)nc(NCCCN3CC(F)(F)C3)nc2n1` [Example 195], the Emax lay in the range of 0 to 100% and the EC (100% of 200 uM G418 response) was above 31.6 µM.
As to `CNc1nc(NC2CCN(C)C2(C)C)nc2nc(C)cc(C)c12` (stereo not shown) [Example 409], the Emax fell in the range of 100 to 3000% and the EC (100% of 200 uM G418 response) lay in the range of 1 to 10 µM.
